Laboratory results published in the supplement of paper PMC10307832.

Assays:
Assay in all cases: relative viability (nuclei count vs DMSO), 5 days (fraction); higher = more cells survive
MLN4924 + Bortezomib = compound: NS(=O)(=O)OC[C@@H]1C[C@@H](n2ccc3c(N[C@H]4CCc5ccccc54)ncnc32)C[C@@H]1O [MLN4924] + CC(C)C[C@H](NC(=O)[C@H](Cc1ccccc1)NC(=O)c1cnccn1)B(O)O [Bortezomib] (partner 0.002 µM)
Outline: (§1)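 Lung cancer cell lines in 1536-well plates were dosed by pin tool the day after seeding, either with one drug alone or with a fixed anchor-drug dose plus five library-drug doses (not always all listed) in √10 steps. After 5 days, cells were fixed and their nuclei stained in one step (final 0.05% Triton X-100, 1% formaldehyde, 1 ug/ml Hoechst), then counted on 4× images. Relative viability is the nuclei count in treated wells divided by that in vehicle wells. Values are medians of duplicate plates.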

Carboplatin + OSI-027 = compound: C1CC(C1)(C(=O)O)C(=O)O.[NH2-].[NH2-].[Pt+2] [Carboplatin] + COc1cccc2cc(-c3nc([C@H]4CC[C@H](C(=O)O)CC4)n4ncnc(N)c34)[nH]c12 [OSI-027] (partner 0.5 µM)
Outline: as §1

Carboplatin + Phenformin = compound: C1CC(C1)(C(=O)O)C(=O)O.[NH2-].[NH2-].[Pt+2] [Carboplatin] + N=C(N)NC(=N)NCCc1ccccc1 [Phenformin] (partner 250 µM)
Outline: as §1

GSK126 + Bortezomib = compound: CC[C@H](C)N1C=C(C2=C(C=C(C=C21)C3=CN=C(C=C3)N4CCNCC4)C(=O)NCC5=C(C=C(NC5=O)C)C)C [GSK126] + CC(C)C[C@H](NC(=O)[C@H](Cc1ccccc1)NC(=O)c1cnccn1)B(O)O [Bortezomib] (partner 0.002 µM)
Outline: as §1

Cell Line | relative viability (MLN4924 + Bortezomib; first compound 0.04 µM) | relative viability (MLN4924 + Bortezomib; first compound 0.1265 µM) | relative viability (MLN4924 + Bortezomib; first compound 0.4 µM) | relative viability (MLN4924 + Bortezomib; first compound 1.265 µM) | relative viability (MLN4924 + Bortezomib; first compound 4 µM) | relative viability (Carboplatin + OSI-027; first compound 0.08 µM) | relative viability (Carboplatin + OSI-027; first compound 0.253 µM) | relative viability (Carboplatin + OSI-027; first compound 0.8 µM) | relative viability (Carboplatin + OSI-027; first compound 2.53 µM) | relative viability (Carboplatin + OSI-027; first compound 8 µM) | relative viability (Carboplatin + Phenformin; first compound 0.08 µM) | relative viability (Carboplatin + Phenformin; first compound 0.253 µM) | relative viability (Carboplatin + Phenformin; first compound 0.8 µM) | relative viability (Carboplatin + Phenformin; first compound 2.53 µM) | relative viability (Carboplatin + Phenformin; first compound 8 µM) | relative viability (GSK126 + Bortezomib; first compound 0.08 µM) | relative viability (GSK126 + Bortezomib; first compound 0.253 µM) | relative viability (GSK126 + Bortezomib; first compound 0.8 µM) | relative viability (GSK126 + Bortezomib; first compound 2.53 µM) | relative viability (GSK126 + Bortezomib; first compound 8 µM)
201T | 1.16 | 1.04 | 1.08 | 0.4 | 0.392 | 0.828 | 0.749 | 0.824 | 0.68 | 0.349 | 0.482 | 0.447 | 0.441 | 0.444 | 0.432 | 1.09 | 1.12 | 1.07 | 1.2 | 0.959
A549 | – | – | – | – | – | – | – | – | – | – | 0.186 | 0.193 | 0.16 | 0.112 | 0.073 | – | – | – | – | –
A-427 | 0.622 | 0.447 | 0.231 | 0.195 | 0.197 | 0.449 | 0.531 | 0.479 | 0.499 | 0.39 | 0.428 | 0.385 | 0.32 | 0.285 | 0.383 | 1.06 | 0.977 | 1.02 | 0.989 | 0.973
ABC-1 | 0.344 | 0.331 | 0.259 | 0.274 | 0.211 | 0.551 | 0.509 | 0.547 | 0.335 | 0.299 | 0.226 | 0.19 | 0.248 | 0.251 | 0.226 | 0.319 | 0.35 | 0.336 | 0.309 | 0.268
BEN | 0.687 | 0.51 | 0.267 | 0.16 | 0.122 | 0.295 | 0.304 | 0.266 | 0.287 | 0.292 | 0.233 | 0.275 | 0.258 | 0.264 | 0.248 | 1.11 | 0.742 | 0.737 | 0.885 | 0.846
CAL-12T | – | 0.971 | 0.659 | 0.369 | 0.22 | 0.696 | 0.603 | 0.735 | 0.779 | 0.526 | 0.56 | 0.584 | 0.591 | 0.534 | 0.557 | 0.942 | 1.01 | 0.929 | 1.08 | 1.04
COR-L23 | 0.936 | 0.915 | 0.587 | 0.186 | 0.105 | 0.894 | 0.903 | 0.618 | 0.466 | 0.231 | 0.453 | 0.394 | 0.428 | 0.353 | 0.241 | 1.08 | 0.979 | 0.942 | 1.01 | 0.992
COR-L 105 | 0.629 | 0.396 | 0.252 | 0.242 | 0.41 | 0.835 | 0.776 | 0.696 | 0.62 | 0.537 | 0.576 | 0.418 | 0.481 | 0.411 | 0.373 | 1.03 | 0.718 | 0.773 | 0.786 | 0.748
Calu-6 | 1 | 0.557 | 0.219 | 0.152 | 0.158 | – | – | – | – | – | – | – | – | – | – | 1.18 | 0.949 | 1.1 | 1.2 | 1.04
ChaGo-K-1 | 0.535 | 0.53 | 0.436 | 0.337 | 0.278 | 0.614 | 0.473 | 0.527 | 0.42 | 0.316 | 0.459 | 0.508 | 0.467 | 0.381 | 0.392 | 0.969 | 1.02 | 0.979 | 1.19 | 1.06
EBC-1 | 0.403 | 0.269 | 0.17 | 0.117 | 0.142 | – | – | – | – | – | – | – | – | – | – | 0.61 | 0.542 | 0.529 | 0.563 | 0.411
EKVX | 0.806 | 0.711 | 0.475 | 0.236 | 0.135 | 0.739 | 0.736 | – | 0.674 | 0.683 | 0.248 | 0.214 | – | 0.227 | 0.22 | 1 | 1.07 | 1.08 | 0.992 | 1.06
EMC-BAC-2 | 0.96 | 0.842 | 0.274 | 0.162 | 0.155 | 0.423 | 0.372 | 0.364 | 0.374 | 0.375 | 0.559 | 0.581 | 0.52 | 0.521 | 0.461 | 1.02 | 1.04 | 1.05 | 1.03 | 1.05
EPLC-272H | 0.808 | 0.927 | 0.131 | 0.163 | 0.177 | 0.299 | 0.287 | 0.291 | 0.259 | 0.247 | 0.345 | 0.347 | 0.309 | 0.298 | 0.313 | 1.1 | 0.889 | 0.99 | 0.822 | 0.963
H3255 | 0.559 | 0.707 | 0.262 | 0.2 | 0.32 | 0.591 | 0.513 | 0.529 | 0.519 | 0.488 | 0.291 | 0.381 | 0.395 | 0.349 | 0.364 | 0.729 | 0.731 | 0.683 | 0.802 | 0.879
HARA | 0.918 | 0.516 | 0.218 | 0.101 | 0.0858 | 0.619 | 0.644 | 0.476 | 0.462 | 0.385 | 0.466 | 0.518 | 0.372 | 0.426 | 0.425 | 1.15 | 1.14 | 1.09 | 1.11 | 1.05
HCC-15 | 0.685 | 0.53 | 0.234 | 0.102 | 0.0928 | 0.833 | 0.664 | 0.689 | 0.635 | 0.439 | 0.562 | 0.47 | 0.441 | 0.407 | 0.37 | 1.04 | 1.1 | 0.974 | 0.957 | 0.975
HCC-44 | 0.774 | 0.642 | 0.281 | 0.208 | 0.19 | 0.53 | 0.572 | 0.5 | 0.484 | 0.292 | 0.344 | 0.191 | 0.194 | 0.187 | 0.144 | 0.857 | 0.972 | 0.876 | 0.77 | 0.871
